# Assay results: the NIST ThermoML archive (doi:10.1021/je100148h)
# ± gives the expanded uncertainty stated by the source.
# Test: xn = mol fraction of the nth substance listed
# Conditions: Fluid (supercritical or subcritical phases), Burnett expansion method
compound,measurement,setting,value
CCC [propane] + O=C=O,mass density,"319.99 K, 766.06 kPa, x2 = 0.8017",13.1764 ± 0.011 kg/m3
same,mass density,"320 K, 410.29 kPa, x2 = 0.8017",6.9285 ± 0.012 kg/m3
same,mass density,"320 K, 561.41 kPa, x2 = 0.8017",9.5546 ± 0.012 kg/m3
same,mass density,"320 K, 1040.9 kPa, x2 = 0.8017",18.1699 ± 0.011 kg/m3
same,mass density,"320 K, 1137.2 kPa, x2 = 0.5158",20.5385 ± 0.012 kg/m3
same,mass density,"320 K, 1406.4 kPa, x2 = 0.8017",25.056 ± 0.012 kg/m3
same,mass density,"320 K, 1885.5 kPa, x2 = 0.8017",34.5507 ± 0.013 kg/m3
same,mass density,"320 K, 2500.6 kPa, x2 = 0.8017",47.6423 ± 0.014 kg/m3
same,mass density,"320 K, 3266.5 kPa, x2 = 0.8017",65.693 ± 0.015 kg/m3
same,mass density,"320.01 K, 158.39 kPa, x2 = 0.8017",2.6416 ± 0.012 kg/m3
same,mass density,"320.01 K, 177.71 kPa, x2 = 0.5158",2.9791 ± 0.011 kg/m3
same,mass density,"320.01 K, 217.81 kPa, x2 = 0.8017",3.6431 ± 0.012 kg/m3
same,mass density,"320.01 K, 244.02 kPa, x2 = 0.5158",4.1102 ± 0.011 kg/m3
same,mass density,"320.01 K, 299.21 kPa, x2 = 0.8017",5.0239 ± 0.012 kg/m3
same,mass density,"320.01 K, 334.43 kPa, x2 = 0.5158",5.6704 ± 0.011 kg/m3
same,mass density,"320.01 K, 457.2 kPa, x2 = 0.5158",7.8226 ± 0.011 kg/m3
same,mass density,"320.01 K, 622.82 kPa, x2 = 0.5158",10.7917 ± 0.011 kg/m3
same,mass density,"320.01 K, 844.37 kPa, x2 = 0.5158",14.8878 ± 0.011 kg/m3
same,mass density,"320.01 K, 1518.1 kPa, x2 = 0.5158",28.332 ± 0.013 kg/m3
same,mass density,"320.01 K, 1999.6 kPa, x2 = 0.5158",39.0832 ± 0.014 kg/m3
same,mass density,"320.01 K, 2584 kPa, x2 = 0.5158",53.9126 ± 0.015 kg/m3
same,mass density,"329.98 K, 579.89 kPa, x2 = 0.8017",9.5517 ± 0.013 kg/m3
same,mass density,"329.99 K, 791.85 kPa, x2 = 0.8017",13.1719 ± 0.012 kg/m3
same,mass density,"329.99 K, 1457.4 kPa, x2 = 0.8017",25.0477 ± 0.012 kg/m3
same,mass density,"329.99 K, 3418.1 kPa, x2 = 0.8017",65.6701 ± 0.015 kg/m3
same,mass density,"330 K, 308.75 kPa, x2 = 0.8017",5.0223 ± 0.014 kg/m3
same,mass density,"330 K, 423.55 kPa, x2 = 0.8017",6.9261 ± 0.013 kg/m3
same,mass density,"330 K, 1958.2 kPa, x2 = 0.8017",34.5379 ± 0.012 kg/m3
same,mass density,"330 K, 2604.9 kPa, x2 = 0.8017",47.625 ± 0.013 kg/m3
same,mass density,"330 K, 4401.1 kPa, x2 = 0.8017",90.5446 ± 0.016 kg/m3
same,mass density,"330.01 K, 163.4 kPa, x2 = 0.8017",2.6407 ± 0.014 kg/m3
same,mass density,"330.01 K, 183.36 kPa, x2 = 0.5158",2.9774 ± 0.011 kg/m3
same,mass density,"330.01 K, 224.73 kPa, x2 = 0.8017",3.6418 ± 0.014 kg/m3
same,mass density,"330.01 K, 251.86 kPa, x2 = 0.5158",4.1078 ± 0.011 kg/m3
same,mass density,"330.01 K, 345.31 kPa, x2 = 0.5158",5.667 ± 0.011 kg/m3
same,mass density,"330.01 K, 472.35 kPa, x2 = 0.5158",7.8181 ± 0.011 kg/m3
same,mass density,"330.01 K, 644.04 kPa, x2 = 0.5158",10.7856 ± 0.011 kg/m3
same,mass density,"330.01 K, 874.2 kPa, x2 = 0.5158",14.879 ± 0.011 kg/m3
same,mass density,"330.01 K, 1077.1 kPa, x2 = 0.8017",18.1629 ± 0.012 kg/m3
same,mass density,"330.01 K, 1179.4 kPa, x2 = 0.5158",20.5259 ± 0.011 kg/m3
same,mass density,"330.01 K, 1578.5 kPa, x2 = 0.5158",28.3153 ± 0.012 kg/m3
same,mass density,"330.01 K, 2086.8 kPa, x2 = 0.5158",39.0593 ± 0.013 kg/m3
same,mass density,"330.01 K, 2711.7 kPa, x2 = 0.5158",53.8795 ± 0.015 kg/m3
same,mass density,"330.01 K, 3442.6 kPa, x2 = 0.5158",74.3214 ± 0.018 kg/m3
same,mass density,"339.99 K, 598.29 kPa, x2 = 0.8017",9.5479 ± 0.015 kg/m3
same,mass density,"339.99 K, 817.54 kPa, x2 = 0.8017",13.1668 ± 0.014 kg/m3
same,mass density,"339.99 K, 1508.1 kPa, x2 = 0.8017",25.0378 ± 0.013 kg/m3
same,mass density,"340 K, 231.59 kPa, x2 = 0.8017",3.6405 ± 0.016 kg/m3
same,mass density,"340 K, 436.79 kPa, x2 = 0.8017",6.9234 ± 0.015 kg/m3
same,mass density,"340 K, 2030.2 kPa, x2 = 0.8017",34.5251 ± 0.012 kg/m3
same,mass density,"340 K, 2708.2 kPa, x2 = 0.8017",47.606 ± 0.013 kg/m3
same,mass density,"340 K, 3567.9 kPa, x2 = 0.8017",65.643 ± 0.014 kg/m3
same,mass density,"340 K, 4621.3 kPa, x2 = 0.8017",90.5058 ± 0.019 kg/m3
same,mass density,"340.01 K, 168.38 kPa, x2 = 0.8017",2.6397 ± 0.016 kg/m3
same,mass density,"340.01 K, 189.01 kPa, x2 = 0.5158",2.9763 ± 0.011 kg/m3
same,mass density,"340.01 K, 259.67 kPa, x2 = 0.5158",4.1062 ± 0.011 kg/m3
same,mass density,"340.01 K, 318.3 kPa, x2 = 0.8017",5.0202 ± 0.015 kg/m3
same,mass density,"340.01 K, 487.5 kPa, x2 = 0.5158",7.8151 ± 0.011 kg/m3
same,mass density,"340.01 K, 665.18 kPa, x2 = 0.5158",10.7812 ± 0.011 kg/m3
same,mass density,"340.01 K, 903.91 kPa, x2 = 0.5158",14.873 ± 0.011 kg/m3
same,mass density,"340.01 K, 1113.1 kPa, x2 = 0.8017",18.156 ± 0.013 kg/m3
same,mass density,"340.01 K, 1221.3 kPa, x2 = 0.5158",20.5179 ± 0.011 kg/m3
same,mass density,"340.01 K, 1638.3 kPa, x2 = 0.5158",28.3036 ± 0.012 kg/m3
same,mass density,"340.01 K, 2172.9 kPa, x2 = 0.5158",39.0436 ± 0.013 kg/m3
same,mass density,"340.01 K, 2837.3 kPa, x2 = 0.5158",53.8584 ± 0.014 kg/m3
same,mass density,"340.01 K, 3628.8 kPa, x2 = 0.5158",74.2902 ± 0.02 kg/m3
same,mass density,"340.01 K, 4509 kPa, x2 = 0.5158",102.472 ± 0.023 kg/m3
same,mass density,"340.01 K, 5849.8 kPa, x2 = 0.8017",124.787 ± 0.022 kg/m3
same,mass density,"340.02 K, 356.19 kPa, x2 = 0.5158",5.6647 ± 0.011 kg/m3
same,mass density,"350.01 K, 173.33 kPa, x2 = 0.8017",2.6389 ± 0.018 kg/m3
same,mass density,"350.01 K, 194.63 kPa, x2 = 0.5158",2.9748 ± 0.011 kg/m3
same,mass density,"350.01 K, 267.49 kPa, x2 = 0.5158",4.1042 ± 0.011 kg/m3
same,mass density,"350.01 K, 367.05 kPa, x2 = 0.5158",5.662 ± 0.011 kg/m3
same,mass density,"350.01 K, 502.56 kPa, x2 = 0.5158",7.8112 ± 0.011 kg/m3
same,mass density,"350.01 K, 616.66 kPa, x2 = 0.8017",9.5444 ± 0.016 kg/m3
same,mass density,"350.01 K, 686.24 kPa, x2 = 0.5158",10.776 ± 0.011 kg/m3
same,mass density,"350.01 K, 843.17 kPa, x2 = 0.8017",13.1618 ± 0.016 kg/m3
same,mass density,"350.01 K, 933.45 kPa, x2 = 0.5158",14.8658 ± 0.011 kg/m3
same,mass density,"350.01 K, 1149 kPa, x2 = 0.8017",18.1499 ± 0.015 kg/m3
same,mass density,"350.01 K, 1263 kPa, x2 = 0.5158",20.5077 ± 0.011 kg/m3
same,mass density,"350.01 K, 1558.6 kPa, x2 = 0.8017",25.0284 ± 0.014 kg/m3
same,mass density,"350.01 K, 1697.7 kPa, x2 = 0.5158",28.2897 ± 0.012 kg/m3
same,mass density,"350.01 K, 2101.9 kPa, x2 = 0.8017",34.5131 ± 0.013 kg/m3
same,mass density,"350.01 K, 2258.2 kPa, x2 = 0.5158",39.0243 ± 0.012 kg/m3
same,mass density,"350.01 K, 2810.8 kPa, x2 = 0.8017",47.5894 ± 0.013 kg/m3
same,mass density,"350.01 K, 2961.5 kPa, x2 = 0.5158",53.8306 ± 0.014 kg/m3
same,mass density,"350.01 K, 3716.3 kPa, x2 = 0.8017",65.6181 ± 0.013 kg/m3
same,mass density,"350.01 K, 3812 kPa, x2 = 0.5158",74.2525 ± 0.018 kg/m3
same,mass density,"350.01 K, 4782.9 kPa, x2 = 0.5158",102.417 ± 0.024 kg/m3
same,mass density,"350.01 K, 4838.8 kPa, x2 = 0.8017",90.4734 ± 0.018 kg/m3
same,mass density,"350.01 K, 5812.8 kPa, x2 = 0.5158",141.262 ± 0.028 kg/m3
same,mass density,"350.02 K, 238.49 kPa, x2 = 0.8017",3.6392 ± 0.018 kg/m3
same,mass density,"350.02 K, 327.8 kPa, x2 = 0.8017",5.0187 ± 0.017 kg/m3
same,mass density,"350.02 K, 450.01 kPa, x2 = 0.8017",6.9209 ± 0.017 kg/m3
same,mass density,"350.02 K, 6175.3 kPa, x2 = 0.8017",124.74 ± 0.021 kg/m3
same,mass density,"360.01 K, 200.24 kPa, x2 = 0.5158",2.9738 ± 0.011 kg/m3
same,mass density,"360.01 K, 275.27 kPa, x2 = 0.5158",4.1028 ± 0.011 kg/m3
same,mass density,"360.01 K, 377.87 kPa, x2 = 0.5158",5.66 ± 0.011 kg/m3
same,mass density,"360.01 K, 517.62 kPa, x2 = 0.5158",7.8085 ± 0.011 kg/m3
same,mass density,"360.01 K, 707.21 kPa, x2 = 0.5158",10.7723 ± 0.011 kg/m3
same,mass density,"360.01 K, 962.87 kPa, x2 = 0.5158",14.8606 ± 0.011 kg/m3
same,mass density,"360.01 K, 1184.7 kPa, x2 = 0.8017",18.1432 ± 0.016 kg/m3
same,mass density,"360.01 K, 1304.5 kPa, x2 = 0.5158",20.5005 ± 0.011 kg/m3
same,mass density,"360.01 K, 1608.9 kPa, x2 = 0.8017",25.0192 ± 0.015 kg/m3
same,mass density,"360.01 K, 1756.6 kPa, x2 = 0.5158",28.2797 ± 0.012 kg/m3
same,mass density,"360.01 K, 2173.2 kPa, x2 = 0.8017",34.4994 ± 0.014 kg/m3
same,mass density,"360.01 K, 2342.9 kPa, x2 = 0.5158",39.0102 ± 0.012 kg/m3
same,mass density,"360.01 K, 2912.6 kPa, x2 = 0.8017",47.5708 ± 0.013 kg/m3
same,mass density,"360.01 K, 3084.3 kPa, x2 = 0.5158",53.8108 ± 0.013 kg/m3
same,mass density,"360.01 K, 3992.6 kPa, x2 = 0.5158",74.2241 ± 0.017 kg/m3
same,mass density,"360.01 K, 5052 kPa, x2 = 0.5158",102.377 ± 0.032 kg/m3
